The target of the test is hCereblon(M1-L442)_hDDB1(M1-H1140) (Homo sapiens (Human), UniProt Q96SW2). Kind of test: Fluorescence direct binding protocol (tryptophan fluorescence titration). Particulars: fluorescence titration at 20° C., excited at 280 nm, recorded at 340 nm; protein 5.0 E−8 M; assay buffer 50 mM Hepes 7.4 200 mM NaCl; read-out: Fluorescence h-Cereblon_DDB1 Mean Kd_EQ. Here is the method:
Fluorescence Direct Binding Protocol
Determination of the affinities of compounds to protein containing one or more tryptophan is measurable by monitoring the fluorescence emission in direct mode. The measurements depending on the protein available amounts are performed either manually in a cuvette on ISS-PC1 photon counting spectrofluorometer or automatically in well plates on a fluorescence plate reader device. Fluorescence titrations are performed at 20° C. in the chosen binding assay buffer by using a defined constant protein concentration against ligand concentration variations. Small aliquots of known ligand concentration solubilized in DMSO were added and the fluorescence, excited at 280 nm, was recorded at 340 nm. The fluorescence intensity was corrected for protein dilution and for the filter effect (Birdsall et al.^69). The corrected fluorescence intensity was plotted against the ligand concentration and fitted using a four-parameter sigmoidal function, from which the equilibrium dissociation constant Kd was computed using the law of mass action assuming a 1:1 protein-ligand complex (Eftink, 1997^70).
Process • 1) Optimization of measurement parameters to minimize protein consumption and to minimize the dilution effect and the DMSO content • 2) Titration measurements of the protein against ligand by at least 12 titration steps to obtain a good s-curve fit • 3) Repeat the same titration measurements with the ligand alone to enable correction • 4) Check the stability of the protein once by titration against DMSO alone • 5) Determination of the molar extinction coefficients of the ligand at 280 and 340 nm with help of an UV-spectrophotometer • 6) Use Excel template for the correction of the measured raw data • 7) Use GraphPad Prism software for the quadratic binding fit and the KD evaluation.
hCereblon(M1-L442)_hDDB1(M1-H1140), sequence (Q96SW2 whole entry): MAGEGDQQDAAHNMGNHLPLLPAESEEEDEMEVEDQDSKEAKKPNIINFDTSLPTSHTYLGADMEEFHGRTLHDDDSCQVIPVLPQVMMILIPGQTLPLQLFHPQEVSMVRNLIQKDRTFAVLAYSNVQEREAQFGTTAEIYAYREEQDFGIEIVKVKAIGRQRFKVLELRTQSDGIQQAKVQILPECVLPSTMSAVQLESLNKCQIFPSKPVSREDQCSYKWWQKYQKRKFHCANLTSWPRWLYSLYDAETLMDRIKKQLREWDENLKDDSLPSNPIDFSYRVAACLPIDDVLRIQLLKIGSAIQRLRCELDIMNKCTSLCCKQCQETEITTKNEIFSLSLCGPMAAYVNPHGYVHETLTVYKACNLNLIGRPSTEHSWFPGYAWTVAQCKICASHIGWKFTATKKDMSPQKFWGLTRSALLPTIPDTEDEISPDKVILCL
hCereblon(M1-L442)_hDDB1(M1-H1140), sequence (Q16531 whole entry partner): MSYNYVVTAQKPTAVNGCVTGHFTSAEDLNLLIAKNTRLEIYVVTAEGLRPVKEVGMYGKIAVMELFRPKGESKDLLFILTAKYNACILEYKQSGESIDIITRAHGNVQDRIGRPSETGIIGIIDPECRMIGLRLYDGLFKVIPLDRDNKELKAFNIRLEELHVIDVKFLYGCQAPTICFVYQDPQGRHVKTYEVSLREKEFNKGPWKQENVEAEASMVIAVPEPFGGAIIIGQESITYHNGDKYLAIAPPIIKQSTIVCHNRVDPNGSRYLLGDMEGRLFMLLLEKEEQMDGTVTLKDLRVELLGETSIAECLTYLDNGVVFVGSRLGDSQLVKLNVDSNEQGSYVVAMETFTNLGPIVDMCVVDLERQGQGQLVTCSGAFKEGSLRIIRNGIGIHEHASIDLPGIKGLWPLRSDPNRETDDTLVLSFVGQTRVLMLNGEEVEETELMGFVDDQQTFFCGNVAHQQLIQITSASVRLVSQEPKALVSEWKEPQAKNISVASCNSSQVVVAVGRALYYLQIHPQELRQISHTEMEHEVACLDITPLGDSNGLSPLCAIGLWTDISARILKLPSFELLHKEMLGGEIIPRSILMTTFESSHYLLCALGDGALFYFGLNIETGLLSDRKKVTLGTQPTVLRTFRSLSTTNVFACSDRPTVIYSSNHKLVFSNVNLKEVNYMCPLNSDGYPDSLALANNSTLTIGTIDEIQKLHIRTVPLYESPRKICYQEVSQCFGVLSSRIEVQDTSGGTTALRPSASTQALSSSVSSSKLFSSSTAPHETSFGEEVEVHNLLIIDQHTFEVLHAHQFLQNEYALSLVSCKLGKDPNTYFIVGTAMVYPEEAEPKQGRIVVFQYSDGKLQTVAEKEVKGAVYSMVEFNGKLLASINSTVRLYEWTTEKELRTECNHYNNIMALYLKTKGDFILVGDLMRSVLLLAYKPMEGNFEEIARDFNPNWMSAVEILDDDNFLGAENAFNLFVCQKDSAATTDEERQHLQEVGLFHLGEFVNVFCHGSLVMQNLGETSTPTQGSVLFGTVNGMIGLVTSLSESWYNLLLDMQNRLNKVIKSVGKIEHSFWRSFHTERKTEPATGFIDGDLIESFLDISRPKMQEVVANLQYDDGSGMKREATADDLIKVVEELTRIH
Take `O=C(Nc1ccc2[nH]c(=O)[nH]c2c1)N1CCc2ccc(Cl)cc21` [Example 129, 6-Chloro-N-(2-oxo-2,3-dihydro-1H-benzo[d]imidazol-5-yl)indoline-1-carboxamide]: the Kd is 188 nM. As for `Cc1sc2c(c1C)C(c1ccc(Cl)cc1)=N[C@@H](CC(=O)NCCOCCOCCNC(=O)c1ccc3c(c1)nc(-c1ccnc4ccccc14)n3-c1ccc3[nH]c(=O)[nH]c3c1)c1nnc(C)n1-2` [Example C, (S)—N-(2-(2-(2-(2-(4-(4-Chlorophenyl)-2,3,9-trimethyl-6H-thieno[3,2-f][1,2,4]triazolo[4,3-a][1,4]diazepin-6-yl)acetamido)ethoxy)ethoxy)ethyl)-2′-oxo-2-(quinolin-4-yl)-2′,3′-dihydro-1′H-[1,5′-bibenzo[d]imidazole]-5-carboxamide], the figure is 19 nM; as for `CNC(=O)c1ccc(Nc2ccc3[nH]c(=O)[nH]c3c2)c(N)c1` [Example 1, 3-Amino-N-methyl-4-[(2-oxo-1,3-dihydrobenzimidazol-5-yl)amino]benzamide], 587 nM. As for `CC(=O)Nc1ccc(NC(=O)Nc2ccc3[nH]c(=O)[nH]c3c2)cc1` [Example 101, N-(4-(3-(2-oxo-2,3-dihydro-1H-benzo[d]imidazol-5-yl)ureido)phenyl)acetamide], the figure is 14 nM. As to `CNC(=O)c1ccc2c(c1)nc(C(C)C)n2-c1cnc2[nH]c(=O)[nH]c2c1` [Example 79, 2-Isopropyl-N-methyl-1-(2-oxo-1,3-dihydroimidazo[4,5-b]pyridin-6-yl)benzimidazole-5-carboxamide], the Kd was 4 nM. `COC(=O)c1ccc(S(=O)(=O)Nc2ccc3[nH]c(=O)[nH]c3c2)cc1` [Example 118, Methyl 4-(N-(2-oxo-2,3-dihydro-1H-benzo[d]imidazol-5-yl)sulfamoyl)benzoate]: the Kd was found to be 82 nM. With `CNC(=O)c1ccc2c(c1)nc(-c1cnc[nH]1)n2-c1ccc2[nH]c(=O)[nH]c2c1` [Example 15, 2-(1H-Imidazol-4-yl)-N-methyl-2′-oxo-2′,3′-dihydro-1′H-[1,5′-bibenzo[d]imidazole]-5-carboxamide], the Kd stood at 49 nM. Turning to `CC(C)(C)OC(=O)N1CCC(S(=O)(=O)Nc2ccc3[nH]c(=O)[nH]c3c2)CC1` [Example 125, tert-Butyl 4-(N-(2-oxo-2,3-dihydro-1H-benzo[d]imidazol-5-yl)sulfamoyl)piperidine-1-carboxylate], the Kd came to 20 nM. As for `COC(=O)c1cccc2c1nc(C(C)C)n2-c1ccc2[nH]c(=O)[nH]c2c1` [Example 47, Methyl 2-isopropyl-2′-oxo-2′,3′-dihydro-1′H-[1,5′-bibenzo[d]imidazole]-4-carboxylate], the figure is 20 nM; as for `Cn1c(=O)[nH]c2nc(-c3ccccc3)ccc21` [Example 44, 1-Methyl-5-phenyl-3H-imidazo[4,5-b]pyridin-2-one], < 1 nM. Turning to `Cn1cncc1-c1cc(-c2nc3cc(C(N)=O)ccc3n2-c2ccc3[nH]c(=O)[nH]c3c2)c2ccccc2n1` [Example 113, 2-(2-(1-Methyl-1H-imidazol-5-yl)quinolin-4-yl)-2′-oxo-2′,3′-dihydro-1′H-[1,5′-bibenzo[d]imidazole]-5-carboxamide], the Kd came to 899 nM. As for `O=c1[nH]c2cc(-c3ccccc3OCc3ccccc3)cnc2[nH]1` [Example 104, 6-(2-(Benzyloxy)phenyl)-1,3-dihydro-2H-imidazo[4,5-b]pyridin-2-one], the figure is 14 nM; as for `O=C(Nc1ccc2[nH]c(=O)[nH]c2c1)C1CCc2ccccc21` (centres unmarked) [Example 69, N-(2-Oxo-2,3-dihydro-1H-benzo[d]imidazol-5-yl)-2,3-dihydro-1H-indene-1-carboxamide], 29 nM; as for `O=C(Nc1ccc2[nH]c(=O)[nH]c2c1)c1ccccc1Cc1ccccc1` [Example 123, 2-Benzyl-N-(2-oxo-2,3-dihydro-1H-benzo[d]imidazol-5-yl)benzamide], 22 nM. Turning to `CNC(=O)CCc1nc2ccccc2n1-c1ccc2[nH]c(=O)[nH]c2c1` [Example 81, N-Methyl-3-[1-(2-oxo-1,3-dihydrobenzimidazol-5-yl)benzimidazol-2-yl]propanamide], the Kd was 4 nM. As for `COC(=O)c1ccc2c(c1)nc(-c1cc(-c3cncn3C)nc3ccccc13)n2-c1ccc2[nH]c(=O)[nH]c2c1` [Example 107, Methyl 2-(2-(1-methyl-1H-imidazol-5-yl)quinolin-4-yl)-2′-oxo-2′,3′-dihydro-1′H-[1,5′-bibenzo[d]imidazole]-5-carboxylate], the figure is 831 nM. As for `O=c1[nH]c2ccc(NS(=O)(=O)c3coc4ccccc34)cc2[nH]1` [Example 137, N-(2-Oxo-2,3-dihydro-1H-benzo[d]imidazol-5-yl)benzofuran-3-sulfonamide], the figure is 22 nM; as for `O=c1[nH]c2ccc(NS(=O)(=O)C3CCNCC3)cc2[nH]1` [Example 134, N-(2-Oxo-2,3-dihydro-1H-benzo[d]imidazol-5-yl)piperidine-4-sulfonamide], 7 nM; as for `Cn1c(=O)n(C)c2cc(NC(=O)c3ccco3)ccc21` [Example 25, N-(1,3-Dimethyl-2-oxo-benzimidazol-5-yl)furan-2-carboxamide], 111 nM. As for `COC(=O)c1cccc2c1CCN2C(=O)Nc1ccc2[nH]c(=O)[nH]c2c1` [Example 89, Methyl 1-((2-oxo-2,3-dihydro-1H-benzo[d]imidazol-5-yl)carbamoyl)indoline-4-carboxylate], the figure is 25 nM; as for `Cn1c(=O)n(C)c2cc(Nc3ccccc3N)ccc21` [Example 50, 5-((2-Aminophenyl)amino)-1,3-dimethyl-1,3-dihydro-2H-benzo[d]imidazol-2-one], 11 nM; as for `O=C(Nc1ccc2[nH]c(=O)[nH]c2c1)[C@H]1CCCc2ccccc21` [Example 71, (S)—N-(2-Oxo-2,3-dihydro-1H-benzo[d]imidazol-5-yl)-1,2,3,4-tetrahydronaphthalene-1-carboxamide], 16 nM. In the case of `O=c1[nH]c2ccc(-c3cccnc3)cc2[nH]1` [Example 19, 5-(Pyridin-3-yl)-1H-benzo[d]imidazol-2(3H)-one], the Kd turned out to be 7 nM. In the case of `O=C(Nc1ccccc1)c1cnc2[nH]c(=O)[nH]c2c1` [Example 67, 2-Oxo-N-phenyl-2,3-dihydro-1H-imidazo[4,5-b]pyridine-6-carboxamide], the Kd was 5 nM. As for `O=c1[nH]c2ccc(-c3ccc(-n4cccc4)cc3)cc2[nH]1` [Example 41, 5-(4-Pyrrol-1-yl-phenyl)-1,3-dihydro-benzoimidazol-2-one], the figure is 18 nM.

For `CNC(=O)c1ccc2c(c1)nc(-c1cc(-c3cncn3C)nc3ccccc13)n2-c1ccc2c(c1)n(C)c(=O)n2C` [Example 17, N,1′,3′-Trimethyl-2-(2-(1-methyl-1H-imidazol-5-yl)quinolin-4-yl)-2′-oxo-2′,3′-dihydro-1′H-[1,5′-bibenzo[d]imidazole]-5-carboxamide], the Kd was 42 nM.

For `O=C(NCc1ccccc1)Nc1ccc2[nH]c(=O)[nH]c2c1` [Example 94, 1-Benzyl-3-(2-oxo-2,3-dihydro-1H-benzo[d]imidazol-5-yl)urea], the Kd is < 1 nM. As for `O=c1[nH]c2ccc(-n3c(-c4ccnc5ccccc45)nc4ccccc43)cc2[nH]1` [Example 7, 2-(Quinolin-4-yl)-1′H-[1,5′-bibenzo[d]imidazol]-2′(3′H)-one], the figure is 27 nM; as for `CNC(=O)c1ccc2c(c1)nc(C)n2-c1ccc2[nH]c(=O)[nH]c2c1` [Example 5, N,2-Dimethyl-2′-oxo-2′,3′-dihydro-1′H-[1,5′-bibenzo[d]imidazole]-5-carboxamide], 180 nM; as for `O=c1[nH]c2ccc(-n3cnc4ccccc43)cc2[nH]1` [Example 83, 5-(Benzimidazol-1-yl)-1,3-dihydrobenzimidazol-2-one], 3 nM. As for `O=c1[nH]c2ccc(-n3c(CO)nc4ccccc43)cc2[nH]1` [Example 61, 5-[2-(Hydroxymethyl)benzimidazol-1-yl]-1,3-dihydrobenzimidazol-2-one], the figure is 29 nM.

On to `CC(C)(C)OC(=O)Nc1ccc2c(c1)CCN2Cc1ccc2[nH]c(=O)[nH]c2c1` [Example 148, tert-Butyl (1-((2-oxo-2,3-dihydro-1H-benzo[d]imidazol-5-yl)methyl)indolin-5-yl)carbamate], for which the Kd came out at 19 nM. As for `Cn1ccc(-c2cccc(NC(=O)c3ccc4[nH]c(=O)[nH]c4c3)c2)n1` [Example 130, N-(3-(1-Methyl-1H-pyrazol-3-yl)phenyl)-2-oxo-2,3-dihydro-1H-benzo[d]imidazole-5-carboxamide], the figure is 781 nM; as for `O=C(Nc1ccccc1)c1ccc2[nH]c(=O)[nH]c2c1` [Example 77, 2-Oxo-N-phenyl-2,3-dihydro-1H-benzo[d]imidazole-5-carboxamide], 42 nM; as for `CC(=O)Nc1ccc(C(=O)Nc2ccc3[nH]c(=O)[nH]c3c2)cc1` [Example 74, 4-Acetamido-N-(2-oxo-2,3-dihydro-1H-benzo[d]imidazol-5-yl)benzamide], 2 nM.

(Values after US11787802B2, “Dihydrobenzimidazolones for medical treatment” (C4 Therapeutics, Inc., priority 2017, dated 2023).)
